Data on five molecules can be found in US20180284095A1, “BIOMARKERS ASSOCIATED WITH LSD1 INHIBITORS AND USES THEREOF” (Oryzon Genomics, S.A., priority 2015, published 2018).

The assay has as its target T1, Human recombinant monoamine oxidase MAO-A (Homo sapiens, UniProt P21397).
T1 construct: purchased Sigma Aldrich
T1 sequence (P21397 1-527): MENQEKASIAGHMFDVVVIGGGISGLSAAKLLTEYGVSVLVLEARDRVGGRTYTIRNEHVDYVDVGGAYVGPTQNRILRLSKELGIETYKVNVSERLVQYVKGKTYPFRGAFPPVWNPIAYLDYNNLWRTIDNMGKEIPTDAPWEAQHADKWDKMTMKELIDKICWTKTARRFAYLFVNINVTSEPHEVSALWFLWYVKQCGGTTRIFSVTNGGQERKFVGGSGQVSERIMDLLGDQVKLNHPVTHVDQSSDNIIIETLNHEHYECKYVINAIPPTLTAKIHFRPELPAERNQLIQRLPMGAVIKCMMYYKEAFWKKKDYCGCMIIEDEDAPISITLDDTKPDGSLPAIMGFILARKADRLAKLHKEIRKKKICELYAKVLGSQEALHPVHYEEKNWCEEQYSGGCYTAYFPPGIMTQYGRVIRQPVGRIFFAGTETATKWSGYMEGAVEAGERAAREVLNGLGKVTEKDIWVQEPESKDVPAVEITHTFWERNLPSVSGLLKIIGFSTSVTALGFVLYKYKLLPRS
Kind of assay: MAO-A fluorescence-based kynuramine assay. In kind it is biochemical. The text has this:
LSD1 has a fair degree of structural similarity and amino acid identity/homology with the flavin-dependent amine oxidases monoamine oxidase A (MAO-A) and B (MAO-B). To determine the level of selectivity of a LSD1 inhibitor versus MAO-A and MAO-B, the inhibitory activity of a compound of interest against MAO-A and MAO-B can be tested using the method described below: Human recombinant monoamine oxidase proteins MAO-A and MAO-B were purchased from Sigma Aldrich.
MAOs catalyze the oxidative deamination of primary, secondary and tertiary amines. In order to monitor MAO enzymatic activities and/or their inhibition rate by inhibitor(s) of interest, a fluorescence-based (inhibitor)-screening assay was set up. 3-(2-Aminophenyl)-3-oxopropanamine (kynuramine dihydrobromide, Sigma Aldrich), a non fluorescent compound was chosen as a substrate. Kynuramine is a non-specific substrate for both MAO-A and MAO-B activities. While undergoing oxidative deamination by MAO activities, kynuramine is converted into 4-hydroxyquinoline (4-HQ), a resulting fluorescent product.
The monoamine oxidase activity was estimated by measuring the conversion of kynuramine into 4-hydroxyquinoline. Assays were conducted in 96-well black plates with clear bottom (Corning) in a final volume of 100 μL. The assay buffer was 100 mM HEPES, pH 7.5. Each experiment was performed in duplicate within the same experiment.
Briefly, a fixed amount of MAO was incubated on ice for 15 minutes in the reaction buffer, in the absence and/or in the presence of at least eight 3-fold serial dilutions each. Clorgyline and Deprenyl (Sigma Aldrich) was used as a control for specific inhibition of MAO-A and MAO-B respectively.
After leaving the enzyme(s) interacting with the inhibitor, KM of kynuramine was added to each reaction for MAO-B and MAO-A assay respectively, and the reaction was left for 1 hour at 37° C. in the dark. The oxidative deamination of the substrate was stopped by adding 50 μL of NaOH 2N. The conversion of kynuramine to 4-hydroxyquinoline, was monitored by fluorescence (excitation at 320 nm, emission at 360 nm) using a microplate reader (Infinite 200, Tecan). Arbitrary units were used to measure levels of fluorescence produced in the absence and/or in the presence of inhibitor.
The maximum of oxidative deamination activity was obtained by measuring the amount of 4-hydroxyquinoline formed from kynuramine deamination in the absence of inhibitor and corrected for background fluorescence in the absence of MAO enzymes. The IC50 values of each inhibitor were calculated with GraphPad Prism Software.
For the molecule `NC(=O)CN[C@H]1C[C@@H]1c1ccc(OCc2ccccc2)cc1` (racemic) [Compound 3, 2-(((trans)-2-(4-(benzyloxy)phenyl)cyclopropyl)amino)acetamide], the IC50 was determined as 2.3 µM.

For the molecule `CN1CCN(C(=O)CN[C@H]2C[C@@H]2c2ccc(OCc3ccccc3)cc2)CC1` (racemic) [Compound 4, 2-(((trans)-2-(4-(benzyloxy)phenyl)cyclopropyl)amino)-1-(4-methylpiperazin-1-yl)ethan-1-one], the IC50 was 4.6 µM.

For the molecule `N[C@H]1CCN(CCN[C@H]2C[C@@H]2c2ccc(-c3cccc(C(F)(F)F)c3)cc2)C1` (racemic) [Compound 5, (S)-1-(2-(((trans)-2-(3′-(trifluoromethyl)-[1,1′-biphenyl]-4-yl)cyclopropyl)amino)ethyl)pyrrolidin-3-amine], the IC50 stood at 3.4 µM.

Regarding “(+) 5-((((trans)-2-(4-(benzyloxy)phenyl)cyclopropyl)amino)methyl)-1,3,4-oxadiazol-2-amine [Compound 2]”, the IC50 is 3.8 µM.

On to “(−) 5-((((trans)-2-(4-(benzyloxy)phenyl)cyclopropyl)amino)methyl)-1,3,4-oxadiazol-2-amine [Compound 1]”, for which the IC50 came to 5.3 µM.

As usually defined, the IC50 is the concentration at which inhibition is half-maximal.
